Data: patent publication US20250197343A1, “CATIONIC LIPID” (TAKEDA PHARMACEUTICAL COMPANY LIMITED, priority 2021, published 2025)
Where two headings read alike, the source gives them in different places.

Columns and labels:
[1] = system: ICrl:CD1 (ICR) mice; test: Mouse bioluminescence imaging evaluation (Test Example 1); type: in vivo; conditions: Luc DNA-encapsulated lipid nanoparticles 10 mL/kg i.v. to ICR mice; IVIS total flux 15 minutes after luciferin i.p.
Method in brief: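 ICR mice received Luc DNA-encapsulated lipid nanoparticles i.v. (10 mL/kg), then luciferin 15 mg/mL i.p. (10 mL/kg). Ventral IVIS imaging under isoflurane 15 min after luciferin; total flux scored A (≥3.0E+07), B (1.0E+07 to <3.0E+07), C (<1.0E+07).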

[2] = Particle size of Luc DNA-encapsulated lipid nanoparticles; type: physicochemical; conditions: cationic lipid:DPPC:cholesterol:GM-020=60:10.6:28:1.4 molar ratio
Method in brief: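 LNPs of cationic lipid:DPPC:cholesterol:GM-020 (60:10.6:28:1.4 molar) encapsulating luciferase DNA, made by microfluidic mixing with DNA in 10 mM MES pH 5.5, dialysed into PBS, stored in 20% sucrose/PBS at −80 °C. Size by dynamic light scattering, reported as cumulant Z-average.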

[3] = system: Huh-7 cells; test: Evaluation of viability using Huh-7 cells (Test Example 2); type: cell-based
Experimental: Huh-7 cells were seeded in a 96-well plate, and PBS, the Luc DNA-encapsulated lipid nanoparticles obtained in the aforesaid Production Example by using the cationic lipids of the Examples shown in Table 3, or Luc DNA-encapsulated lipid nanoparticles for control which were obtained in the same manner as in the aforesaid Production Example except that a known lipid, MC3 (DLin-MC3-DMA) or ALC-0315, was used instead of the cationic lipids of the Examples were added thereto (final concentration: 0.1 μg/mL and 0.3 μg/mL), followed by evaluation of viability (CellTiter-Fluor Cell Viability Assay, Promega Corporation). Taking the viability of dead cell group as 0% and the viability of the PBS group as 100%, the viability of each of the lipid particle groups was calculated. Higher viability indicates higher safety of the lipid particles. When the cationic lipids of the Examples were used, an improvement in safety compared to the control groups of MC3 and ALC-0315 was observed.

[4] = Rate of encapsulation of Luc DNA in lipid nanoparticles; type: physicochemical; set-up: unit: %; conditions: Luc DNA-encapsulated lipid nanoparticles; cationic lipid:DPPC:cholesterol:GM-020=60:10.6:28:1.4 molar ratio
Method in brief: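 Luc DNA-LNPs (cationic lipid:DPPC:cholesterol:GM-020 = 60:10.6:28:1.4 molar) formed by microfluidic mixing with DNA in 10 mM MES pH 5.5, then dialyzed into PBS. RiboGreen fluorescence measured with and without Triton X-100; encapsulation rate is the encapsulated fraction of total nucleic acid.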

[5] = Huh-7 cells, Luc DNA-encapsulated lipid nanoparticles, final concentration 0.1 μg/mL, PBS group = 100%, dead cell group = 0%
[6] = Huh-7 cells, Luc DNA-encapsulated lipid nanoparticles, final concentration 0.3 μg/mL, PBS group = 100%, dead cell group = 0%

Compound | Luminescence [1] | Particle size (nm) [2] [nm] | Viability 0.1 μg/ml (%) [3, 5] [%] | Viability 0.3 μg/ml (%) [3, 6] [%] | Rate of encapsulation [4] | Viability 0.1 μg/ml (%) [3] [%] | Viability 0.3 μg/ml (%) [3] [%]
CCCCCCCCCCOC(=O)CCCCC(=O)OCC(COC(=O)CCCN(C)C)(COC(=O)CC(CCCCC)CCCCC)COC(=O)CC(CCCCC)CCCCC [Example 51, Decyl 2-({[4-(dimethylamino)butanoyl]oxy}methyl)-3-[(3-pentyloctanoyl)oxy]-2-{[(3-pentyloctanoyl)oxy]methyl}propyl hexanedioate] | B (B represents luminescence of 1.0E+0.7 or more and less than 3.0E+07) | 83.9 | 104 | 78 | 98.2 |  | 
CCCCCCCOC(=O)CCCCC(=O)OCC(COC(=O)CCCCC(=O)OCCCCCCC)(COC(=O)CCCN(C)CCO)COC(=O)CC(CCCCC)CCCCC [Example 93, 1,1′-Diheptyl 6,6′-(2-[({4-[(2-hydroxyethyl)(methyl)amino]butanoyl}oxy)methyl]-2-{[(3-pentyloctanoyl)oxy]methyl}propane-1,3-diyl) dihexanedioate] | B (B represents luminescence of 1.0E+0.7 or more and less than 3.0E+07) | 145.6 | 105 | 101 | 94.8 |  | 
CCCCCC(CCCCC)OC(=O)CCC(=O)OCC(COC(=O)CCCN(C)C)(COC(=O)CCC(=O)OC(CCCCC)CCCCC)COC(=O)CCC(=O)OC(CCCCC)CCCCC [Example 39, 1,1′-{2-({[4-(Dimethylamino)butanoyl]oxy}methyl)-2-[({4-oxo-4-[(undecan-6-yl)oxy]butanoyl}oxy)methyl]propane-1,3-diyl} 4,4′-diundecan-6-yl dibutanedioate] | B (B represents luminescence of 1.0E+0.7 or more and less than 3.0E+07) | 135.2 |  |  | 98.5 | 113 | 94
CCCCCC(CCCCC)CC(=O)OCC(COC(=O)CCCCC(=O)OCC(CCC)CCC)(COC(=O)CCCCC(=O)OCC(CCC)CCC)COC(=O)CCCN(C)C [Example 115, 1,1′-[2-({[4-(Dimethylamino)butanoyl]oxy}methyl)-2-{[(3-pentyloctanoyl)oxy]methyl}propane-1,3-diyl] 6,6′-bis(2-propylpentyl) dihexanedioate] | A (A represents luminescence of 3.0E+07 or more) | 109.6 | 110 | 100 | 95.7 |  | 
